Measured values: patent US20070004634A1 (Novo Nordisk A/S, priority 1998, published 2007)
No end group written: not given here.

Columns and labels:
IR = IR (Homo sapiens, UniProt P06213); assay: Phage ELISA, binding of phage clones to IR (ratio over background); details: ratio of IR divided by ratio of IGF-1R
Description: (§1) HIT indicates binder; CAND indicates binder candidate; LDH indicates binding to lactate dehydrogenase (negative control); Sp/Irr indicates the ratio of specific binding over non-specific binding.
(§2) Sp/Irr=the ratio of specific binding over non-specific binding; LDH=lactate dehydrogenase (negative control).
(§3) For phage pools, cells from frozen stocks were grown and phage were prepared as described above. For analysis of individual clones, colonies were picked and phage prepared as described above. Subsequent steps were the same for pooled and clonal phage. Microtiter wells were coated and blocked as described above. […] Phage resuspended in MPBS (PBS containing 2% non-fat milk) were added to wells (100 μl/well) and incubated at room temperature for 1 h. The phage solution was then removed, and the wells were washed three times with PBS at room temperature.
(§4) Anti-M13 antibody conjugated to horseradish peroxidase (Pharmacia Biotech) was diluted 1:3000 in MPBS and added to each well (100 μl/well). Incubation was for another hour at room temperature, followed by PBS washes as described. Color was developed by addition of ABTS solution (100 μl/well; Boehringer). […] Data points were averaged after subtraction of appropriate blanks. A clone was considered “positive” if the A405 of the well was ≧2-fold over background.

IGF-1R = IGF-1R (Homo sapiens, UniProt P08069); assay: Phage ELISA, binding of phage clones to IGF-1R (ratio over background); details: ratio of IGF-1R divided by ratio of IR
Description: as §1, §2, §3, §4

Comparisons IR/IGF-1R (IR) | Comparisons IGF-1R/IR (IGF-1R) | Substance
0.2 | 5.9 | PAGPCGFYCGLGLLLHGDQSP [20E2B-4-H8-IGFR]
0.1 | 13.1 | PDLHKGFYAQLAQLIRGQLLS [20E2B-3-E3-IGFR]
0.1 | 7.8 | AQPCGGFYGLLEQLVGRSVCD [20E2B-4-F10-IGFR]
0.3 | 4.0 | NYRRQVFNGNFYDWFDRQVFSLVTPG [H2CA-3-D8-IGFR]
0.7 | 1.4 | VDTPAQVGWNRLWSVGPGEHWYTDDPFYH*LSELLRESGA [Peptide B6L-3-G6-IR]
0.1 | 8.9 | QPAPDGFYSALMKLIGRGGVS [20E2B-3-C8-IGFR]
0.5 | 2.2 | HLADGQFHEKFYDWFERQISSRCNDC [H2CA-3-E11-IGFR]
0.3 | 3.6 | PPLASDLDVQFYGWFVQQVSPPGRGG [H2CA-2-B3-IGFR]
0.1 | 11.3 | GGTEVDFYRALERLVRGQLGL [20E2B-3-D8-IGFR]
0.1 | 13.0 | YRGMLVLGRISGGAGKAASERPARIGQKVSAVNFYDWFV [Peptide A6L-0-H3-IR]
0.0 | 20.5 | CCTTEMVVMDARDDPFYHKLSELVTGG [Peptide B6Hα-1-B5-IR]
0.2 | 6.0 | FFYRCLSRLLGGQLGSRLGLSCIGD [20C-3-E4-IGFR]
0.2 | 4.8 | SSCDGAGHESFYEWFVRQVSGCRSV [H2CA-3-C8-IGFR]
0.1 | 9.7 | RFSTDGFYQYLLALVGGGPVG [20E2B-1-A11-IGFR]
0.1 | 13.1 | GLDHSDAVGVHLGFAWPAQARGRWEAGGLEDTWAGYDWL [40F-4-B1-IGFR]
0.1 | 7.0 | RQGTGSFYLMLEQLLVGARGP [20E2B-4-G11-IGFR]
0.1 | 11.7 | RGMKEEVLVGGSTDPFYHKLSELLQGS [B6Hα-3-F11-IR]
0.3 | 3.6 | GGTKAVAKVGTRDDPFYHKLSELLQGS [Peptide B6Hα-4-G8-IR]
0.3 | 3.7 | LRRQAPVEENFYDWFVRQVSGDRVGG [H2CA-3-D7-IGFR]
0.2 | 5.1 | APDPSDFQEIFYDWFVRQVSRMPGGG [H2CA-1-A3-IGFR]
0.3 | 3.5 | GAPVDQLHEDFYDWFVRQVSQAATG [H2CA-2-B2-IGFR]
0.3 | 3.4 | GFREGSFYDWFQAQVT [E4Dα-2-D11-IR]
0.1 | 14.2 | RCEEKQAEVGPSSDPFYHKMSELLGCR [Peptide B6Hα-3-E9-IR]
0.7 | 1.4 | AETSAQVGWQRLWSVWPGDHWSTLDPFYHKLSELLRESGA [Peptide B6L-3-G5-IR]

Comparisons IR/IGF-1R (IR) | Comparisons IGF-1R/IR (IGF-1R) | Substance
0.6 | 1.8 | AGTPAQVG*NRLWSVWPGEHWNTVDPFYNKLSELLRESGA (AGTPAQVGXNRLWSVWPGEHWNTVDPFYNKLSELLRESGA; not fully specified; X: residue not identified in the source; ends and bridges not checked) [Peptide B6L-4-A7-IR]
0.3 | 3.1 | SRVAATKEKRPSDDPFYHKLSELLQGS [Peptide B6Hα-3-F7-IR]
0.5 | 1.9 | GHYFGSFYDAIDQLVAGMLPG [20E2A-3-A3-IGFR]
0.3 | 2.9 | LGYQEPFQQNFYDWFVRQVSGAENAG [H2CA-3-E8-IGFR]
0.2 | 4.9 | RFDPFYSYFVNLLGASA [NNRPγ-4-A7-IR]
0.2 | 6.4 | AVRATRFDEAFYDWFVRQISDGQGNK [H2CA-4-F6-IGFR]
0.2 | 5.6 | RCQGTGFYTCIQELIGFGDPD [20E2B-4-H9-IGFR]
0.2 | 4.6 | GCVVEWQKWHGASDPFYHKLSELGGCS [B6Hα-3-F10-IR]
0.1 | 6.7 | LSSDGQFYRALNLLLQGSAGR [20E2B-2-B7-IGFR]
0.3 | 2.9 | RCGDEEGWQENRRDDPFYHKLSELFGGC [Peptide B6Hα-3-E5-IR]
0.1 | 7.4 | ICTGQGFYQVLCGLLRGTSAR [20E2B-2-B3-IGFR]
0.4 | 2.6 | VERSASSQDGNFYDWFVVQIR [Peptide A6S-2-D1-IR]
0.1 | 11.7 | W.GYAWLS [40F-4-D10-IGFR]
0.1 | 10.3 | DRAFYNGLRDLVGAVYGAWD [R20α-4-20C11-IR]
0.1 | 14.1 | DRDFCRFYERLTALVGGQVDGGWPC [20C-3-F6-IGFR]
0.1 | 12.9 | FYDAIDQLVRGSARAGGTRD [R20α-3-20E2-IR]
0.3 | 3.3 | SQAGSAFYAWFDQVLRTVHSA [20E2Bβ-4-G6-IR]
0.1 | 7.3 | QGNVLDFYGWIGRLLAKQGSD [20E2B-3-D12-IGFR]
0.5 | 2.1 | FRTLAAQHDSFYDWFDRQVSGAAGER [H2CA-3-C11-IGFR]
0.1 | 7.6 | QFYGCLLDLSLGVPSFGWRRRCITA [20C-3-A4-IGFR]
<0.1 | 27.0 | TFYSCLASLLTGTPQPNRGPWERCR [20C-3-G3-IGFR]
0.1 | 11.7 | IQQELTFYDLLHRLVRSELGS [20E2B-3-D2-IGFR]
0.3 | 3.3 | SRAKVEAEMPDSGDPFYHKLSELLASG [Peptide B6Hα-1-A3-IR]
0.5 | 1.8 | CSMAAVAEAGDDDDPFYHKLSELCQGS [Peptide B6Hα-3-F1-IR]

Comparisons IR/IGF-1R (IR) | Comparisons IGF-1R/IR (IGF-1R) | Substance
0.3 | 3.8 | FYVQQWGHENFYDWFDRQVSQSGGAG [H2CA-4-F1-IGFR]
0.1 | 6.7 | RGIVAMVEATEVGSDHPFYHKLSELVQGS [Peptide B6Hα-2-C7-IR]
0.1 | 7.1 | EGSGFYGYFFSLLGLQG [NNRPγ-4-A9-IR]
0.2 | 4.1 | GFREGNFYEWFQAQVT [Peptide E4Dα-4-H2-IR]
0.4 | 2.6 | MNVFVSFYDAIDQLVCQRIGC [20E2A-4-G11-IGFR]
0.2 | 4.3 | GCAVVEEAERSRGDPFYHKLSELIQGC [Peptide B6Hα-3-E7-IR]
0.2 | 6.0 | IIGGFYSYFNSVLRLGT [NNRPγ-4-A1-IR]
0.3 | 3.0 | SSETAKMVTGTRDDPFYHKLSELVQGS [Peptide B6Hα-D8-IR]
0.2 | 4.2 | QAVQPGFHEEFYDWFVRQVSTGVGGG [H2CA-4-H4-IGFR]
0.2 | 5.3 | SGAKVIVVTGDSGDPFYHKLSELLQGS [B6Hα-2-C10-IR]
0.2 | 4.4 | GRTMAVMAAGGPDDPFYHKLSELVQGG [Peptide B6Hα-2-D6-IR]
0.1 | 13.1 | LSCLAYSRHGIWRPSTDLGLGRSVGEGSVSTRWRGYDWFE [40F-4-D1-IGFR]
0.1 | 6.9 | DSVGDNFYQLLESLVGGHGVG [20E2B-3-D6-IGFR]
0.2 | 5.0 | TLRSPTFYDWLEMVLTHGQGG [20E2B-1-A8-IGFR]
0.3 | 4.0 | QSPVGSSHEDFYDWFFRQVAQSGAHQ [H2CA-3-D6-IGFR]
0.1 | 7.3 | VATSQGFYSGLSELLQGGGNV [20E2B-3-E12-IGFR]
0.1 | 7.5 | CMM.DGFYAGLGCLLTAGEGR (CMMXDGFYAGLGCLLTAGEGR; not fully specified; printed as CMM.DGFYAGLGCLLTAGEGR; X: residue not identified in the source; cysteine pairing not given here) [20E2B-3-C11-IGFR]
0.1 | 13.9 | KLHNLMFYYGLQRLVWGAGLG [20E2B-4-H3-IGFR]
0.1 | 16.6 | RLFYCGIQALGANLGYSGCV [R20α-4-20A12-IR]
0.1 | 7.7 | QPDHSYFYSLLQELVGSEERL [20E2B-4-F9-IGFR]
0.5 | 2.0 | QSGSGDFYDWLSRLIRGNGDG [20E2Bβ-3-C7-IR]
– | 14.6 | RGCNDDGGKGWSDDPFYHKLSELICGG [Peptide B6Hα-1-A2-IR]
– | 6.2 | ASSASGFYELLQRLAGLGLEV [20E2B-3-C4-IGFR]
